Reference: PubChem BioAssay (NCI)
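Compound exposure: 48 hours, 5 concentrations, 96-well plates. Abbreviation: GI50, concentration required for 50% inhibition of growth. Definition used: TGI = concentration required for complete inhibition of growth.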

Columns and labels:
Assay in all cases: inhibition of tumour cell growth, NCI panel, 48 h
NCI-H226 lung = test system: NCI-H226 lung
NCI-H460 lung = test system: NCI-H460 lung
MALME-3M melanoma = test system: MALME-3M melanoma
MOLT-4 leukemia = test system: MOLT-4 leukemia
MDA-MB-435 = test system: MDA-MB-435
HCT-116 colon = test system: HCT-116 colon
OVCAR-3 ovarian = test system: OVCAR-3 ovarian
HS 578T breast = test system: HS 578T breast
SW-620 colon = test system: SW-620 colon
CCRF-CEM leukemia = test system: CCRF-CEM leukemia
SNB-19 CNS = test system: SNB-19 CNS
SK-MEL-2 melanoma = test system: SK-MEL-2 melanoma
A498 renal = test system: A498 renal
SK-MEL-5 melanoma = test system: SK-MEL-5 melanoma
UO-31 renal = test system: UO-31 renal
PC-3 prostate = test system: PC-3 prostate
RXF 393 renal = test system: RXF 393 renal
TK-10 renal = test system: TK-10 renal
HCC-2998 colon = test system: HCC-2998 colon
HOP-62 NSCLC = test system: HOP-62 NSCLC
786-0 renal = test system: 786-0 renal
KM12 colon = test system: KM12 colon
CAKI-1 renal = test system: CAKI-1 renal
UACC-257 melanoma = test system: UACC-257 melanoma
SK-MEL-28 melanoma = test system: SK-MEL-28 melanoma
EKVX NSCLC = test system: EKVX NSCLC
RPMI-8226 leukemia = test system: RPMI-8226 leukemia
SN12C renal = test system: SN12C renal
OVCAR-5 ovarian = test system: OVCAR-5 ovarian
DU-145 prostate = test system: DU-145 prostate
SK-OV-3 ovarian = test system: SK-OV-3 ovarian
HOP-92 NSCLC = test system: HOP-92 NSCLC
HCT-15 colon = test system: HCT-15 colon
HT29 colon = test system: HT29 colon
NCI/ADR-RES ovarian = test system: NCI/ADR-RES ovarian
SF-268 CNS = test system: SF-268 CNS
LOX IMVI melanoma = test system: LOX IMVI melanoma
SF-295 CNS = test system: SF-295 CNS
BT-549 breast = test system: BT-549 breast
UACC-62 melanoma = test system: UACC-62 melanoma
U251 CNS = test system: U251 CNS
A549 NSCLC = test system: A549 NSCLC
IGROV1 ovarian = test system: IGROV1 ovarian
T-47D breast = test system: T-47D breast
COLO 205 colon = test system: COLO 205 colon
MDA-MB-231 breast = test system: MDA-MB-231 breast
OVCAR-8 ovarian = test system: OVCAR-8 ovarian
SF-539 CNS = test system: SF-539 CNS
OVCAR-4 ovarian = test system: OVCAR-4 ovarian
ACHN renal = test system: ACHN renal
NCI-H23 lung = test system: NCI-H23 lung
MCF7 breast = test system: MCF7 breast
K-562 leukemia = test system: K-562 leukemia
NCI-H522 lung = test system: NCI-H522 lung

Q: `O=C(Oc1ccccc1Cl)c1cccnc1Nc1ccnc(C(F)(F)F)c1` was tested. Which GI50 (NCI-H226 lung) did it give?
A: 2.61 µM

Q: And the TGI (NCI-H226 lung)?
A: 8.07 µM

Q: What about the GI50 (NCI-H460 lung) of the same compound?
A: 38.4 µM

Q: And the TGI (NCI-H460 lung)?
A: > 100 µM

Q: And the GI50 (MALME-3M melanoma)?
A: 8.29 µM

Q: What about the TGI (MALME-3M melanoma) of the same compound?
A: 41.1 µM

Q: What about the GI50 (MOLT-4 leukemia) of the same compound?
A: 2.52 µM

Q: And the TGI (MOLT-4 leukemia)?
A: 8.97 µM

Q: What about the GI50 (MDA-MB-435) of the same compound?
A: 4.53 µM

Q: What about the TGI (MDA-MB-435) of the same compound?
A: 18.3 µM

Q: And the GI50 (HCT-116 colon)?
A: 2.13 µM

Q: And the TGI (HCT-116 colon)?
A: 4.35 µM

Q: And the GI50 (OVCAR-3 ovarian)?
A: 16.5 µM

Q: What about the TGI (OVCAR-3 ovarian) of the same compound?
A: 32.6 µM

Q: What about the GI50 (HS 578T breast) of the same compound?
A: 17.3 µM

Q: And the TGI (HS 578T breast)?
A: 48.9 µM

Q: And the GI50 (SW-620 colon)?
A: 3.72 µM

Q: And the TGI (SW-620 colon)?
A: 22.3 µM

Q: And the GI50 (CCRF-CEM leukemia)?
A: 2.4 µM

Q: What about the TGI (CCRF-CEM leukemia) of the same compound?
A: 6.52 µM

Q: What about the GI50 (SNB-19 CNS) of the same compound?
A: 23.4 µM

Q: What about the TGI (SNB-19 CNS) of the same compound?
A: 70.1 µM

Q: What about the GI50 (SK-MEL-2 melanoma) of the same compound?
A: 6.79 µM

Q: What about the TGI (SK-MEL-2 melanoma) of the same compound?
A: 21.8 µM

Q: And the GI50 (A498 renal)?
A: 17.3 µM

Q: What about the TGI (A498 renal) of the same compound?
A: 37.2 µM

Q: What about the GI50 (SK-MEL-5 melanoma) of the same compound?
A: 14 µM

Q: What about the TGI (SK-MEL-5 melanoma) of the same compound?
A: 27 µM

Q: And the GI50 (UO-31 renal)?
A: 14.6 µM

Q: What about the TGI (UO-31 renal) of the same compound?
A: 32.6 µM

Q: What about the GI50 (PC-3 prostate) of the same compound?
A: 17.8 µM

Q: What about the TGI (PC-3 prostate) of the same compound?
A: 36.3 µM

Q: And the GI50 (RXF 393 renal)?
A: 19.1 µM

Q: What about the TGI (RXF 393 renal) of the same compound?
A: 42.6 µM

Q: And the GI50 (TK-10 renal)?
A: 24.7 µM

Q: And the TGI (TK-10 renal)?
A: 70.7 µM

Q: What about the GI50 (HCC-2998 colon) of the same compound?
A: 15.6 µM

Q: What about the TGI (HCC-2998 colon) of the same compound?
A: 30 µM

Q: What about the GI50 (HOP-62 NSCLC) of the same compound?
A: 19 µM

Q: What about the TGI (HOP-62 NSCLC) of the same compound?
A: 37 µM

Q: What about the GI50 (786-0 renal) of the same compound?
A: 14.7 µM

Q: What about the TGI (786-0 renal) of the same compound?
A: 31.4 µM

Q: What about the GI50 (KM12 colon) of the same compound?
A: 14.4 µM

Q: What about the TGI (KM12 colon) of the same compound?
A: 32.6 µM

Q: And the GI50 (CAKI-1 renal)?
A: 23.1 µM

Q: What about the TGI (CAKI-1 renal) of the same compound?
A: 50 µM

Q: And the GI50 (UACC-257 melanoma)?
A: 21.4 µM

Q: What about the TGI (UACC-257 melanoma) of the same compound?
A: 63.5 µM

Q: What about the GI50 (SK-MEL-28 melanoma) of the same compound?
A: 20.4 µM

Q: And the TGI (SK-MEL-28 melanoma)?
A: 46.8 µM

Q: What about the GI50 (EKVX NSCLC) of the same compound?
A: 32.6 µM

Q: What about the TGI (EKVX NSCLC) of the same compound?
A: 84.3 µM

Q: What about the GI50 (RPMI-8226 leukemia) of the same compound?
A: 12.4 µM

Q: What about the TGI (RPMI-8226 leukemia) of the same compound?
A: 36.7 µM

Q: What about the GI50 (SN12C renal) of the same compound?
A: 4.03 µM

Q: What about the TGI (SN12C renal) of the same compound?
A: 18 µM

Q: And the GI50 (OVCAR-5 ovarian)?
A: 39.6 µM

Q: What about the TGI (OVCAR-5 ovarian) of the same compound?
A: > 100 µM

Q: What about the GI50 (DU-145 prostate) of the same compound?
A: 15.7 µM

Q: And the TGI (DU-145 prostate)?
A: 30.4 µM

Q: What about the GI50 (SK-OV-3 ovarian) of the same compound?
A: 36.9 µM

Q: What about the TGI (SK-OV-3 ovarian) of the same compound?
A: > 100 µM

Q: And the GI50 (HOP-92 NSCLC)?
A: 35.2 µM

Q: And the TGI (HOP-92 NSCLC)?
A: > 100 µM

Q: What about the GI50 (HCT-15 colon) of the same compound?
A: 14.6 µM

Q: What about the TGI (HCT-15 colon) of the same compound?
A: 29.1 µM

Q: What about the GI50 (HT29 colon) of the same compound?
A: 25.3 µM

Q: And the TGI (HT29 colon)?
A: 71.5 µM

Q: What about the GI50 (NCI/ADR-RES ovarian) of the same compound?
A: 16.5 µM

Q: What about the TGI (NCI/ADR-RES ovarian) of the same compound?
A: 62.8 µM

Q: And the GI50 (SF-268 CNS)?
A: 10.1 µM

Q: And the TGI (SF-268 CNS)?
A: 33.6 µM

Q: And the GI50 (LOX IMVI melanoma)?
A: 3.96 µM

Q: And the TGI (LOX IMVI melanoma)?
A: 14.2 µM

Q: And the GI50 (SF-295 CNS)?
A: 21.3 µM

Q: What about the TGI (SF-295 CNS) of the same compound?
A: 52.5 µM

Q: What about the GI50 (BT-549 breast) of the same compound?
A: 5.12 µM

Q: What about the TGI (BT-549 breast) of the same compound?
A: 22.4 µM

Q: What about the GI50 (UACC-62 melanoma) of the same compound?
A: 6.13 µM

Q: What about the TGI (UACC-62 melanoma) of the same compound?
A: 18.7 µM

Q: What about the GI50 (U251 CNS) of the same compound?
A: 17.6 µM

Q: And the TGI (U251 CNS)?
A: 32.9 µM

Q: And the GI50 (A549 NSCLC)?
A: 30.2 µM

Q: And the TGI (A549 NSCLC)?
A: > 100 µM

Q: And the GI50 (IGROV1 ovarian)?
A: 10.7 µM

Q: What about the TGI (IGROV1 ovarian) of the same compound?
A: 30.4 µM

Q: What about the GI50 (T-47D breast) of the same compound?
A: 29.4 µM

Q: And the TGI (T-47D breast)?
A: > 100 µM

Q: And the GI50 (COLO 205 colon)?
A: 26.6 µM

Q: What about the TGI (COLO 205 colon) of the same compound?
A: 84.5 µM

Q: And the GI50 (MDA-MB-231 breast)?
A: 11.9 µM

Q: What about the TGI (MDA-MB-231 breast) of the same compound?
A: 46.7 µM

Q: And the GI50 (OVCAR-8 ovarian)?
A: 14.7 µM

Q: What about the TGI (OVCAR-8 ovarian) of the same compound?
A: 47 µM

Q: And the GI50 (SF-539 CNS)?
A: 13.4 µM

Q: And the TGI (SF-539 CNS)?
A: 39.8 µM

Q: What about the GI50 (OVCAR-4 ovarian) of the same compound?
A: 27.8 µM

Q: What about the TGI (OVCAR-4 ovarian) of the same compound?
A: 95.8 µM

Q: What about the GI50 (ACHN renal) of the same compound?
A: 22 µM

Q: What about the TGI (ACHN renal) of the same compound?
A: 50.2 µM

Q: What about the GI50 (NCI-H23 lung) of the same compound?
A: 8.79 µM

Q: What about the TGI (NCI-H23 lung) of the same compound?
A: 23.7 µM

Q: And the GI50 (MCF7 breast)?
A: 3.66 µM

Q: What about the TGI (MCF7 breast) of the same compound?
A: 17.5 µM

Q: What about the GI50 (K-562 leukemia) of the same compound?
A: 4.61 µM

Q: And the TGI (K-562 leukemia)?
A: 27.6 µM

Q: And the GI50 (NCI-H522 lung)?
A: 6.6 µM

Q: And the TGI (NCI-H522 lung)?
A: 23.3 µM
